Measured values published in patent publication US5869487A, “Pyrido[3,4-B]pyrazines for use as thrombin inhibitors” (Merck & Co., Inc., priority 1997, dated 1999).

Molecular target: T1, human α-thrombin (Homo sapiens, UniProt P00734)
T1 construct: Assays of human α-thrombin
Experiment: In vitro assay for determining proteinase inhibition (human α-thrombin)
Type: biochemical
Settings: 25° C., 0.05M TRIS buffer pH 7.4, 0.15M NaCl, 0.1% PEG; sar-PR-pna or Z-GPR-afc substrate
Procedure: In vitro assay for determining proteinase inhibition
Assays of human α-thrombin and human trypsin were performed at 25° C. in 0.05M TRIS buffer pH 7.4, 0.15M NaCl, 0.1% PEG. Trypsin assays also contained 1 mM CaCl2.
In assays wherein rates of hydrolysis of a p-nitroanilide (pna) substrate were determined, a Thermomax 96-well plate reader was used to measure (at 405 nm) the time dependent appearance of p-nitroaniline. sar-PR-pna (sarcosine-Pro-Arg-p-nitroanilide) was used to assay human α-thrombin (Km =125 μM) and human trypsin (Km =59 μM). p-Nitroanilide substrate concentration was determined from measurements of absorbance at 342 nm using an extinction coefficient of 8270 cm^-1 M^-1.
In certain studies with potent inhibitors (Ki <10 nM) where the degree of inhibition of thrombin was high, a more sensitive activity assay was employed. In this assay the rate of thrombin catalyzed hydrolysis of the fluorogenic substrate Z-GPR-afc (Cbz-Gly-Pro-Arg-7-amino-4-trifluoromethylcoumarin) (Km =27 μM) was determined from the increase in fluorescence at 500 nm (excitation at 400 nm) associated with production of 7-amino-4-trifluoromethyl coumarin. Concentrations of stock solutions of Z-GPR-afc were determined from measurements of absorbance at 380 nm of the 7-amino-4-trifluoromethyl coumarin produced upon complete hydrolysis of an aliquot of the stock solution by thrombin.
Activity assays were performed by diluting a stock solution of substrate at least tenfold to a final concentration 0.5 Km into a solution containing enzyme or enzyme equilibrated with inhibitor. Times required to achieve equilibration between enzyme and inhibitor were determined in control experiments. Initial velocities of product formation in the absence (Vo) or presence of inhibitor (Vi) were measured. Assuming competitive inhibition, and that unity is negligible compared Km /[S], […] (where [S], [I], and e respectively represent the total concentrations, of substrate, inhibitor and enzyme), the equilibrium constant (Ki) for dissociation of the inhibitor from the enzyme can be obtained from the dependence of Vo /Vi on [I] shown in equation 1.

| Compound | Ki |
| --- | --- |
| Cc1nc(N)ccc1CNC(=O)Cn1c(C)cc2c(c1=O)NC(=O)[C@H](CC1CC1)N2 | < 1 nM |
| Cc1cc2c(c(=O)n1CC(=O)NCc1cc(Cl)ccc1OCC(=O)NC1CC1)NC(=O)[C@H](Cc1ccccc1)N2 | < 1 nM |
| Cc1nc(N)ccc1CNC(=O)Cn1c(C)cc2c(c1=O)NC(=O)[C@H](Cc1ccccc1)N2 | < 1 nM |
| Cc1nc(N)ccc1CNC(=O)Cn1c(C)cc2c(c1=O)NC(=O)[C@@H]1CCCCN21 | > 1 nM |
| Cc1nc(N)ccc1CNC(=O)Cn1c(C)cc2c(c1=O)NC(=O)CN2Cc1ccccc1 | > 1 nM |
| Cc1nc(N)ccc1CNC(=O)Cn1c(C)cc2c(c1=O)NC(=O)[C@H](CC1CC1)N2C | < 1 nM |
| Cc1cc2c(c(=O)n1CC(=O)NCc1ccc(N)nc1)NC(=O)[C@H](CC1CC1)N2C | < 1 nM |
| Cc1cc2c(c(=O)n1CC(=O)NCc1ccccc1OCC(=O)NC1CC1)NC(=O)[C@H](CC1CC1)N2C | < 1 nM |
